Experimental findings from patent US9376436B2, “2-(pyridin-2yl)-1, 7-diaza-spiro [4.4] nonane-6-one compound as voltage-gated sodium channels modulators” (CONVERGENCE PHARMACEUTICALS LIMITED, priority 2011, dated 2016) are described below.

Structures can show the parent of a compound that is named as a salt. Where two headings read alike, the source gives them in different places.

In this assay the target is T1, hNaV1.7 (Homo sapiens, UniProt Q15858).
T1 construct: expressed in transfected cells; host or cells: HEK293
T1 sequence (Q15858 whole entry): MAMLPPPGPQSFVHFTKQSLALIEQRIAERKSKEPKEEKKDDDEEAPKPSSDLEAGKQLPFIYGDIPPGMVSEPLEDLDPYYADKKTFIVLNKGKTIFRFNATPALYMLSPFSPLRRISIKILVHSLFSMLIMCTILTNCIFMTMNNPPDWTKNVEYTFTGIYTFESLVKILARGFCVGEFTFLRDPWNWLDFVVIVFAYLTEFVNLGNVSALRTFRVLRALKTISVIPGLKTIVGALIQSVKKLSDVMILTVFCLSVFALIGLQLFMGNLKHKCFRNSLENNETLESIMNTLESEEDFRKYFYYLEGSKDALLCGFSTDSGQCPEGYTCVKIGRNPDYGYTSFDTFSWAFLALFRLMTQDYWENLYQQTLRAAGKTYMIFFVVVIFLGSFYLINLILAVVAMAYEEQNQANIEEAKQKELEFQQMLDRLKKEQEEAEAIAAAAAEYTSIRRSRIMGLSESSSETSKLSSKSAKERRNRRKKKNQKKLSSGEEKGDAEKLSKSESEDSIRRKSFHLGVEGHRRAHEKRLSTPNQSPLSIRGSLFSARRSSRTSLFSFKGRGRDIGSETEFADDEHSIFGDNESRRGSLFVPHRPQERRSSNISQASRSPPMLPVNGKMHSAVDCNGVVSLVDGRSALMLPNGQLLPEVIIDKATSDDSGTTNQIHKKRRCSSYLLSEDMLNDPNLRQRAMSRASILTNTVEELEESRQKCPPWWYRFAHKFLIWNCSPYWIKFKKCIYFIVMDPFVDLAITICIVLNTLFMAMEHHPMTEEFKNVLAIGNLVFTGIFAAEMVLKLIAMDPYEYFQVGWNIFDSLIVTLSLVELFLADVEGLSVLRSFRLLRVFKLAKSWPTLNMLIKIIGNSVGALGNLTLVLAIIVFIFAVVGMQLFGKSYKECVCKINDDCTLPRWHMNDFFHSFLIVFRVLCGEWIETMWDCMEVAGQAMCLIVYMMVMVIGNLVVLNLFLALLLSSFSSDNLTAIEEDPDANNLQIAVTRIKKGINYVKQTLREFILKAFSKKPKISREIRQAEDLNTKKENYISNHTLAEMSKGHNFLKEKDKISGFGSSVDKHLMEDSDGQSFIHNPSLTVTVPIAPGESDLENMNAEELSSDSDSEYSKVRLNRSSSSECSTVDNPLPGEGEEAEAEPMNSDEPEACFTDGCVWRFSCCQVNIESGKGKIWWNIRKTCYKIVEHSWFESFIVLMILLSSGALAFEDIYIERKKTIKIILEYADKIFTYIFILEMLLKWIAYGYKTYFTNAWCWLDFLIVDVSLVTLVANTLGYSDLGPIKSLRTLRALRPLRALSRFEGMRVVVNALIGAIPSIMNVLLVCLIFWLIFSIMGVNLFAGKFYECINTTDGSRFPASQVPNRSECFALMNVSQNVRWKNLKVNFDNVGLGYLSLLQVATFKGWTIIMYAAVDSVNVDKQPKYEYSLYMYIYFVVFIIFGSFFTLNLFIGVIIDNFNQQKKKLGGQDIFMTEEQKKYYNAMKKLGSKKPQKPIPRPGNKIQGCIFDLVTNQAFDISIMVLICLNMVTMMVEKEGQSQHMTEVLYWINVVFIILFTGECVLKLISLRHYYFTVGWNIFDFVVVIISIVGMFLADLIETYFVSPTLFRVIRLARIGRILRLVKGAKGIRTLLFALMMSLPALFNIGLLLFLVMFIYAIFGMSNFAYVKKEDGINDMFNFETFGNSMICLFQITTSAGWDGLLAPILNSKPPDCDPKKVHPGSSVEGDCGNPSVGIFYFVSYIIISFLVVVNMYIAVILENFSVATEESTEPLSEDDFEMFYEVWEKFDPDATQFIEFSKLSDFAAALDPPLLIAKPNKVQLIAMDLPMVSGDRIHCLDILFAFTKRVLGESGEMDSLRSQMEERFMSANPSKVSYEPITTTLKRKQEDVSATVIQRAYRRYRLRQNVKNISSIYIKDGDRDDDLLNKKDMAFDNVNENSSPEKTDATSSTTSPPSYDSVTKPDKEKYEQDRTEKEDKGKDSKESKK
Kind of assay: QPatch NaV1.7 assay (whole-cell patch clamp, QPatch16x). Type of assay: cell-based. The settings on record: HEK293-hNaV1.7 cells. Summed up: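 Automated whole-cell recordings in hNaV1.7-expressing HEK293 cells, holding at either −90 mV (mostly closed channels) or the half-inactivation voltage. Compounds applied cumulatively at four concentrations for 120 s each; peak current on 20 ms depolarisation to 0 mV fitted by Hill equation to yield pIC50.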

The mark [1] stands for this setting: holding voltage V1/2 SSI (half of channels inactivated), read-out: QP Nav1.7 SSI vhalf pIC50 (converted).
[2] abbreviates: holding voltage −90 mV (most channels closed), read-out: QP Nav1.7 −90 mV pIC50 (converted).

`CCOc1cc(-c2cc(C)nc([C@H]3CC[C@@]4(CCN(C)C4=O)N3)c2)c(F)cc1C` [Example 202, (2R,5S)-2-[4-(5-Ethoxy-2-fluoro-4-methyl-phenyl)-6-methyl-2-pyridyl]-7-methyl-1,7-diazaspiro[4.4]nonan-6-one hydrochloride]: the IC50 by setting is: under setting [1], 3.16 µM; under setting [2], 31.6 µM.
For `Cc1cc(-c2cc(N3CCCC3=O)ccc2F)cc([C@H]2CC[C@@]3(CCN(C)C3=O)N2)n1` [Example 203, (2R,5S)-2-[4-[2-Fluoro-5-(2-oxopyrrolidin-1-yl)phenyl]-6-methyl-2-pyridyl]-7-methyl-1,7-diazaspiro[4.4]nonan-6-one hydrochloride], in that order: 251 µM and 2000 µM.
In the case of `CCc1ccc(F)c(-c2cc(C)nc([C@H]3CC[C@@]4(CCN(C)C4=O)N3)c2)c1` [Example 204, (2R,5S)-2-[4-(5-Ethyl-2-fluoro-phenyl)-6-methyl-2-pyridyl]-7-methyl-1,7-diazaspiro[4.4]nonan-6-one hydrochloride], the IC50 runs as follows: under setting [1], 5.01 µM; under setting [2], 31.6 µM.
Taken in the same sequence, the figures for `CCc1cccc(-c2cc(C)nc([C@H]3CC[C@@]4(CCN(C)C4=O)N3)c2)c1` [Example 205, (2R,5S)-2-[4-(3-Ethylphenyl)-6-methyl-2-pyridyl]-7-methyl-1,7-diazaspiro[4.4]nonan-6-one hydrochloride] were 6.31 µM and 63.1 µM.
For `CCc1cccc(-c2cc(C)nc([C@H]3CC[C@@]4(CCN(C)C4=O)N3)c2)c1F` [Example 206, (2R,5S)-2-[4-(3-Ethyl-2-fluoro-phenyl)-6-methyl-2-pyridyl]-7-methyl-1,7-diazaspiro[4.4]nonan-6-one hydrochloride], in that order: 10 µM and 63.1 µM.
Taken in the same sequence, the figures for `CCOc1cccc(-c2cc(C)nc([C@H]3CC[C@@]4(CCN(C)C4=O)N3)c2)c1` [Example 207, (2R,5S)-2-[4-(3-Ethoxyphenyl)-6-methyl-2-pyridyl]-7-methyl-1,7-diazaspiro[4.4]nonan-6-one hydrochloride] were 6.31 µM and 79.4 µM.
Consider `Cc1cc(-c2cc3c(cc2F)CCO3)cc([C@@H]2CC[C@]3(CCN(C)C3=O)N2)n1` [Example 208, (2S,5R)-2-[4-(5-Fluoro-2,3-dihydrobenzofuran-6-yl)-6-methyl-2-pyridyl]-7-methyl-1,7-diazaspiro[4.4]nonan-6-one hydrochloride], for which the IC50 reads like this: under setting [1], 100 µM; under setting [2], 158 µM.
Taken in the same sequence, the figures for `Cc1cc(-c2ccc(OC(C)C)nc2)cc([C@@H]2CC[C@]3(CCN(C)C3=O)N2)n1` [Example 209, (2S,5R)-2-[4-(6-Isopropoxy-3-pyridyl)-6-methyl-2-pyridyl]-7-methyl-1,7-diazaspiro[4.4]nonan-6-one hydrochloride] were 3.16 µM and 25.1 µM.
Take `CCS(=O)(=O)c1ccc(-c2cc(C)nc([C@@H]3CC[C@]4(CCN(C)C4=O)N3)c2)cc1` [Example 210, (2S,5R)-2-[4-(4-Ethylsulfonylphenyl)-6-methyl-2-pyridyl]-7-methyl-1,7-diazaspiro[4.4]nonan-6-one hydrochloride]: under setting [1], the IC50 is 398 µM.
Regarding `Cc1cc(-c2cc(F)ccc2F)cc([C@H]2CC[C@@]3(CCN(C)C3=O)N2)n1` [Example 211, (2R,5S)-2-[4-(2,5-Difluorophenyl)-6-methyl-2-pyridyl]-7-methyl-1,7-diazaspiro[4.4]nonan-6-one hydrochloride], the IC50 was 25.1 µM under setting [1] and 251 µM under setting [2].
Taken in the same sequence, the figures for `CCOc1ccc(F)c(-c2ccnc([C@H]3CC[C@]4(CCN(C)C4=O)N3)c2C)c1` [Example 212, (2R,5R)-2-[4-(5-Ethoxy-2-fluoro-phenyl)-3-methyl-2-pyridyl]-7-methyl-1,7-diazaspiro[4.4]nonan-6-one hydrochloride] were 5.01 µM and 63.1 µM.
Taken in the same sequence, the figures for `CCOc1ccc(F)c(-c2ccnc([C@@H]3CC[C@]4(CCN(C)C4=O)N3)c2C)c1` [Example 213, (2S,5R)-2-[4-(5-Ethoxy-2-fluoro-phenyl)-3-methyl-2-pyridyl]-7-methyl-1,7-diazaspiro[4.4]nonan-6-one hydrochloride] were 6.31 µM and 63.1 µM.
For `CCOc1ccc(F)c(-c2ccnc([C@@H]3CC[C@@]4(CCN(C)C4=O)N3)c2C)c1` [Example 214, (2S,5S)-2-[4-(5-Ethoxy-2-fluoro-phenyl)-3-methyl-2-pyridyl]-7-methyl-1,7-diazaspiro[4.4]nonan-6-one hydrochloride], in that order: 3.98 µM and 31.6 µM.
On to `CCOc1ccc(F)c(-c2ccnc([C@H]3CC[C@@]4(CCN(C)C4=O)N3)c2C)c1` [Example 215, (2R,5S)-2-[4-(5-Ethoxy-2-fluoro-phenyl)-3-methyl-2-pyridyl]-7-methyl-1,7-diazaspiro[4.4]nonan-6-one hydrochloride], for which the IC50 is, setting by setting: under setting [1], 12.6 µM; under setting [2], 126 µM.
As for `CCOc1ccc(F)c(-c2ccnc([C@@H]3CC[C@@]4(CC(C)(C)NC4=O)N3)c2)c1` [Example 216, (2S,5S)-2-[4-(5-Ethoxy-2-fluoro-phenyl)-2-pyridyl]-8,8-dimethyl-1,7-diazaspiro[4.4]nonan-6-one hydrochloride], the IC50 by setting is: under setting [1], 5.01 µM; under setting [2], 31.6 µM.
For the compound `CCOc1ccc(F)c(-c2ccnc([C@H]3CC[C@@]4(CC(C)(C)NC4=O)N3)c2)c1` [Example 217, (2R,5S)-2-[4-(5-Ethoxy-2-fluoro-phenyl)-2-pyridyl]-8,8-dimethyl-1,7-diazaspiro[4.4]nonan-6-one hydrochloride], the IC50 reads like this: under setting [1], 3.98 µM; under setting [2], 25.1 µM.
For the compound `CCOc1ccc(F)c(-c2ccnc([C@H]3CC[C@]4(CC(C)(C)NC4=O)N3)c2)c1` [Example 218, (2R,5R)-2-[4-(5-Ethoxy-2-fluoro-phenyl)-2-pyridyl]-8,8-dimethyl-1,7-diazaspiro[4.4]nonan-6-one hydrochloride], the IC50 under setting [1] was 0.501 µM and the IC50 under setting [2] was 6.31 µM.
As for `CCOc1ccc(F)c(-c2ccnc([C@@H]3CC[C@]4(CC(C)(C)NC4=O)N3)c2)c1` [Example 219, (2S,5R)-2-[4-(5-Ethoxy-2-fluoro-phenyl)-2-pyridyl]-8,8-dimethyl-1,7-diazaspiro[4.4]nonan-6-one hydrochloride], the IC50 was 7.94 µM under setting [1] and 50.1 µM under setting [2].
For `CC1(C)C[C@]2(CC[C@H](c3cc(-c4cc(O)ccc4F)ccn3)N2)C(=O)N1` [Example 220, (2R,5R)-2-[4-(2-Fluoro-5-hydroxy-phenyl)-2-pyridyl]-8,8-dimethyl-1,7-diazaspiro[4.4]nonan-6-one], in that order: 50.1 µM and 200 µM.
Taken in the same sequence, the figures for `CCOc1ccc(F)c(-c2cc([C@@H]3CC[C@]4(CCN(C)C4=O)N3)ncc2F)c1` [Example 221, (2S,5R)-2-[4-(5-Ethoxy-2-fluoro-phenyl)-5-fluoro-2-pyridyl]-7-methyl-1,7-diazaspiro[4.4]nonan-6-one hydrochloride] were 31.6 µM and 316 µM.
Taken in the same sequence, the figures for `CCOc1ccc(F)c(-c2cc([C@H]3CC[C@]4(CCN(C)C4=O)N3)ncc2F)c1` [Example 222, (2R,5R)-2-[4-(5-Ethoxy-2-fluoro-phenyl)-5-fluoro-2-pyridyl]-7-methyl-1,7-diazaspiro[4.4]nonan-6-one hydrochloride] were 25.1 µM and 398 µM.
As to `CCOc1ccc(F)c(-c2cc([C@H]3CC[C@@]4(CCN(C)C4=O)N3)ncc2F)c1` [Example 223, (2R,5S)-2-[4-(5-Ethoxy-2-fluoro-phenyl)-5-fluoro-2-pyridyl]-7-methyl-1,7-diazaspiro[4.4]nonan-6-one hydrochloride], the IC50 is 25.1 µM under setting [1] and 158 µM under setting [2].
Taken in the same sequence, the figures for `CCOc1ccc(F)c(-c2cc([C@@H]3CC[C@@]4(CCN(C)C4=O)N3)ncc2F)c1` [Example 224, (2S,5S)-2-[4-(5-Ethoxy-2-fluoro-phenyl)-5-fluoro-2-pyridyl]-7-methyl-1,7-diazaspiro[4.4]nonan-6-one hydrochloride] were 15.8 µM and 100 µM.
Turning to `CN1CC[C@@]2(CC[C@H](c3cc(-c4ccc(C(F)(F)F)cc4)ccn3)N2C)C1=O` [Example 225, (2R,5S)-1,7-Dimethyl-2-[4-[4-(trifluoromethyl)phenyl]-2-pyridyl]-1,7-diazaspiro[4.4]nonan-6-one hydrochloride], the IC50 is 25.1 µM under setting [1] and 251 µM under setting [2].
For `Cc1cc(-c2ccc(C(F)(F)F)cc2)cc([C@@H]2CC[C@@]3(CCNC3=O)N2C)n1` [Example 226, (2S,5S)-1-Methyl-2-[6-methyl-4-[4-(trifluoromethyl)phenyl]-2-pyridyl]-1,7-diazaspiro[4.4]nonan-6-one hydrochloride], in that order: 12.6 µM and 1580 µM.
`Cc1cc(-c2ccc(C(F)(F)F)cc2)cc([C@H]2CC[C@]3(CCNC3=O)N2C)n1` [Example 227, (2R,5R)-1-Methyl-2-[6-methyl-4-[4-(trifluoromethyl)phenyl]-2-pyridyl]-1,7-diazaspiro[4.4]nonan-6-one hydrochloride]: the IC50 reads like this: under setting [1], 12.6 µM; under setting [2], 158 µM.
As for `Cc1cc(-c2ccc(C(F)(F)F)cc2)cc([C@@H]2CC[C@]3(CCNC3=O)N2C)n1` [Example 228, (2S,5R)-1-Methyl-2-[6-methyl-4-[4-(trifluoromethyl)phenyl]-2-pyridyl]-1,7-diazaspiro[4.4]nonan-6-one hydrochloride], the IC50 under setting [1] was 3.16 µM and the IC50 under setting [2] was 20 µM.
